Test results from publication PMC10714400, “Antimicrobial Peptide–Peptoid Hybrids with and without Membrane Disruption” (ACS Infectious Diseases, 2023).
Values after ≈ are worked out from the molar mass of the structure shown. Where a SMILES comes first, the peptide text is derived from it. [ ]: non-standard residue; d: D form. Nleu = CC(C)CNCC(=O)O; Nlys = NCCCCNCC(=O)O

Assays:
P. aeruginosa PA14 = conditions: PA14, pH 8.5
Description: (§1) Antimicrobial activity was assayed for all the peptide–peptoids against P. aeruginosa PAO1, K. pneumoniae NCTC418, E. coli W3110, A. baumannii ATCC 19606, methicillin-resistant S. aureus COL (MRSA), and for selected peptides on P. aeruginosa PA14 and the polymyxin-B-resistant derivatives PA14 4.13, PA14 4.18, PA14 2P4, as well as the clinical isolates ZEM-1A and ZEM9A, K. pneumoniae OXA-48, S. aureus Newman, Enterobacter cloacae, Stenotrophomonas maltophilia, Burkholderia cenocepacia, and Staphylococus epidermidis. To determine the Minimal Inhibitory Concentration (MIC), the Broth Microdilution method was used.[72] A colony of bacteria was picked and grown in LB medium overnight at 37 °C.
(§2) To each well was finally added 4 μL of the diluted bacterial suspension (see above), corresponding to approximately 5 × 10^5 CFU. For each test, two columns of the plate were kept for sterility control (medium only), growth control (medium with bacterial inoculum, no compound). The positive control, Polymyxin B (starting with a concentration of 16 μg/mL) in MH medium with bacterial inocula, was introduced in the two lines of the plate. […] Next, 15 μL of 3-(4,5-dimethylthiazol-2-yl)-2,5-diphenyltetrazolium bromide (MTT)[73] (1 mg/mL in sterilized MilliQ deionized water) were added to each well, and the plates were incubated for 20–30 min at room temperature. The minimal inhibitory concentration (MIC) was defined as the lowest concentration of the compound that inhibits the visible growth of the tested bacteria (yellow) with the unaided eye.

S. aureus Newman = conditions: Newman, 4 h, pH 8.5
Description: as §1, §2

HEK293 cells = experiment: Cell viability assay by Alamar blue; conditions: read-out: Toxicity on HEK293 cells; CSV
Description: The data are represented as the mean value ± SD, n = 3. […] (c) Vesicle leakage assay for a selection of compounds. Lipid vesicles made of EYPG or EYPC were suspended in a buffer (10 mM TRIS, 107 mM NaCl, pH 7.4). After 45 s, the indicated compound was added to reach the desired concentration. After 240 s, 30 μL of 1.2% TritonX-100 was added for full fluorescein release. […] See Supporting Information for the full curves, all of the data, and procedures.
HEK293 cells were cultured and maintained in DMEM high glucose (Dulbecco’s modified Eagle medium, Sigma Aldrich) medium supplemented with 10% FBS (Sigma Aldrich) and 1% penicillin/streptomycin. A549 cells were cultured and maintained in RPMI-1640 medium (Sigma Aldrich), supplemented with 10% FBS (Sigma Aldrich) and 1% penicillin/streptomycin. The cells were handled and subcultured according to the manufacturer instructions. Cells were incubated in a humidified incubator at 37 °C in the presence of 5% CO2.
Assays on HEK293, A549 cells were performed as described earlier.[74] […]

[1] = Circular dichroism, α-helical content; assay type: physicochemical; conditions: 0.1 mg/mL; for CD %α with 5 mM DPC: 10 mM phosphate buffer pH 7.4, 5 mM DPC; for CD %α with 20% TFE: 10 mM phosphate buffer pH 7.4, 20% TFE
[2] = system: human red blood cells (hRBC); experiment: Minimum hemolytic concentration (MHC); assay type: cell-based
Description: We also measured minimal hemolysis concentrations (MHC) on human red blood cells by serial 2-fold dilution as an indication of toxicity against eukaryotic cells (Table 1).

PA14 4.18 (pmrB) = conditions: […] MH at pH 8.5
Description: as §1
(§3) To each well was finally added 4 μL of the diluted bacterial suspension (see above), corresponding to approximately 5 × 10^5 CFU. For each test, two columns of the plate were kept for sterility control (medium only), growth control (medium with bacterial inoculum, no compound). The positive control, Polymyxin B (starting with a concentration of 16 μg/mL) in MH medium with bacterial inocula, was introduced in the two lines of the plate. The plates were incubated at 37 °C for ca. 18 h under static conditions. Next, 15 μL of 3-(4,5-dimethylthiazol-2-yl)-2,5-diphenyltetrazolium bromide (MTT)[73] (1 mg/mL in sterilized MilliQ deionized water) were added to each well, and the plates were incubated for 20–30 min at room temperature. The minimal inhibitory concentration (MIC) was defined as the lowest concentration of the compound that inhibits the visible growth of the tested bacteria (yellow) with the unaided eye.

PA14 2P4 (pmrB) = conditions: CSV; […] MH at pH 8.5
Description: as §1, §3

A. baumannii ATCC19606 = system: A. baumannii ATCC19606
Description: as §1, §3

PA14 4.13 (phoQ) = conditions: CSV; […] MH at pH 8.5
Description: as §1, §3

E. coli W3110 = system: E. coli W3110
Description: as §1, §3

K. pneumoniae NCTC418 = system: K. pneumoniae NCTC418
Description: as §1, §3

P. aeruginosa PAO1 = system: P. aeruginosa PAO1
Description: as §1, §3

S. aureus COL (MRSA) = system: S. aureus COL (MRSA)
Description: as §1, §3

With CC(C)C[C@H](NC(=O)CN(CCCCN)C(=O)[C@H](CC(C)C)NC(=O)[C@H](CC(C)C)NC(=O)[C@H](CCCCN)NC(=O)[C@H](CC(C)C)NC(=O)[C@H](CC(C)C)NC(=O)[C@H](CCCCN)NC(=O)CNCCCCN)C(=O)N[C@@H](CC(C)C)C(=O)N(CC(N)=O)CC(C)C [EB2, kKLLKLLkLLl] (H-[Nlys]KLLKLL[Nlys]LL[Nleu]-NH2) the “MIC P. aeruginosa PA14” value (P. aeruginosa PA14) was 2 to 4 µg/mL, the “MIC S. aureus Newman” value (S. aureus Newman) was 2 to 4 µg/mL and the IC50 (HEK293 cells) was over 200 µM. For the same compound, the “CD %α with 5 mM DPC” value ([1]; DichroWeb, Contin-LL) was 11%, the “CD %α with 20% TFE” value ([1]; DichroWeb, Contin-LL) was 15% and the “CD %α with 5 mM DPC” value ([1]; Table S2) was 11%. For the same compound, the “CD %α with 20% TFE” value ([1]; Table S2) was 15%, the Hemolysis [2] was “none of them showed any measurable hemolysis” and the MHC [2] was over 2000 µg/mL. The “MIC P. aeruginosa PA14 4.18, […] MH at pH 8.5” value (PA14 4.18 (pmrB); CSV) was 6 ug/mL, the “MIC P. aeruginosa PA14 4.18” value (PA14 4.18 (pmrB); Table S3) was 4 to 8 µg/mL and the “MIC P. aeruginosa PA14 2P4, […] MH at pH 8.5” value (PA14 2P4 (pmrB)) was 8 ug/mL. For the same compound, the “MIC A. baumannii ATCC19606, full MH at pH 7.4” value (A. baumannii ATCC19606; ATCC19606, 4 h, pH 7.4) was over 32 ug/mL, the “MIC A. baumannii ATCC19606 […] 7.4” value (A. baumannii ATCC19606; Table S2, […] MH, pH 7.4) was 16 µg/mL (≈ 12.1 µM) and the “MIC A. baumannii ATCC19606 […] 8.5” value (A. baumannii ATCC19606; Table S2, […] MH, pH 8.5) was 8 µg/mL (≈ 6.05 µM). For the same compound, the “MIC A. baumannii ATCC19606 Full MH 7.4” value (A. baumannii ATCC19606; Table S2, full MH, pH 7.4) was over 32 µg/mL, the “MIC A. baumannii ATCC19606 Full MH 8.5” value (A. baumannii ATCC19606; Table S2, full MH, pH 8.5) was 32 µg/mL (≈ 24.2 µM) and the “MIC P. aeruginosa PA14 4.13, […] MH at pH 8.5” value (PA14 4.13 (phoQ)) was 4 ug/mL. The “MIC E. coli W3110, […] MH at pH 7.4” value (E. coli W3110; CSV, […] MH at pH 7.4) was 4 ug/mL, the “MIC E. coli W3110, full MH at pH 7.4” value (E. coli W3110; CSV, full MH at pH 7.4) was 32 ug/mL and the “MIC E. coli W3110, full MH at pH 8.5” value (E. coli W3110; CSV, full MH at pH 8.5) was 32 ug/mL. For the same compound, the “MIC E. coli W3110 […] 7.4” value (E. coli W3110; Table S2, […] MH, pH 7.4) was 4 µg/mL (≈ 3.03 µM), the “MIC E. coli W3110 […] 8.5” value (E. coli W3110; Table S2, […] MH, pH 8.5) was 2 µg/mL (≈ 1.51 µM) and the “MIC E. coli W3110 Full MH 7.4” value (E. coli W3110; Table S2, full MH, pH 7.4) was 32 µg/mL (≈ 24.2 µM). The “MIC E. coli W3110 Full MH 8.5” value (E. coli W3110; Table S2, full MH, pH 8.5) was 32 µg/mL (≈ 24.2 µM), the “MIC K. pneumoniae NCTC418, full MH at pH 7.4” value (K. pneumoniae NCTC418; NCTC418, 4 h, pH 7.4) was over 32 ug/mL and the “MIC K. pneumoniae NCTC418, full MH at pH 8.5” value (K. pneumoniae NCTC418; NCTC418, 4 h, pH 8.5) was over 32 ug/mL. The “MIC K. pneumoniae NCTC418 […] 7.4” value (K. pneumoniae NCTC418; Table S2, […] MH, pH 7.4) was over 32 µg/mL, the “MIC K. pneumoniae NCTC418 […] 8.5” value (K. pneumoniae NCTC418; Table S2, […] MH, pH 8.5) was over 32 µg/mL and the “MIC K. pneumoniae NCTC418 Full MH 7.4” value (K. pneumoniae NCTC418; Table S2, full MH, pH 7.4) was over 32 µg/mL. For the same compound, the “MIC K. pneumoniae NCTC418 Full MH 8.5” value (K. pneumoniae NCTC418; Table S2, full MH, pH 8.5) was over 32 µg/mL, the “MIC P. aeruginosa PAO1, full MH at pH 7.4” value (P. aeruginosa PAO1; PAO1, 4 h, pH 7.4) was 32 ug/mL and the “MIC P. aeruginosa PAO1, full MH at pH 8.5” value (P. aeruginosa PAO1; PAO1, 4 h, pH 8.5) was 16 ug/mL. For the same compound, the “MIC P. aeruginosa PAO1 […] 7.4” value (P. aeruginosa PAO1; Table S2, […] MH, pH 7.4) was 16 µg/mL (≈ 12.1 µM), the “MIC P. aeruginosa PAO1 […] 8.5” value (P. aeruginosa PAO1; Table S2, […] MH, pH 8.5) was 8 µg/mL (≈ 6.05 µM) and the “MIC P. aeruginosa PAO1 Full MH 7.4” value (P. aeruginosa PAO1; Table S2, full MH, pH 7.4) was 32 µg/mL (≈ 24.2 µM). For the same compound, the “MIC P. aeruginosa PAO1 Full MH 8.5” value (P. aeruginosa PAO1; Table S2, full MH, pH 8.5) was 16 µg/mL (≈ 12.1 µM), the “MIC S. aureus COL (MRSA), full MH at pH 7.4” value (S. aureus COL (MRSA); COL, 4 h, pH 7.4) was over 32 ug/mL and the “MIC S. aureus COL (MRSA), full MH at pH 8.5” value (S. aureus COL (MRSA); COL, 4 h, pH 8.5) was 32 ug/mL. For the same compound, the “MIC S. aureus COL (MRSA) […] 7.4” value (S. aureus COL (MRSA); Table S2, […] MH, pH 7.4) was 32 µg/mL (≈ 24.2 µM), the “MIC S. aureus COL (MRSA) […] 8.5” value (S. aureus COL (MRSA); Table S2, […] MH, pH 8.5) was 2 µg/mL (≈ 1.51 µM) and the “MIC S. aureus COL (MRSA) Full MH 7.4” value (S. aureus COL (MRSA); Table S2, full MH, pH 7.4) was over 32 µg/mL. For the same compound, the “MIC S. aureus COL (MRSA) Full MH 8.5” value (S. aureus COL (MRSA); Table S2, full MH, pH 8.5) was 32 µg/mL (≈ 24.2 µM).
